In publication PMC11393731, “Sidechain structure–activity relationships of cyclobutane-based small molecule αvβ3 antagonists” (RSC Medicinal Chemistry, 2024):
Like-named read-outs stand apart in the source and are kept apart here.

Tests used:
αvβ3 = molecular target: T1, αvβ3 (Homo sapiens, UniProt P05106+P06756); experiment: αvβ3-mediated SK-Mel-2 melanoma cell adhesion to fibronectin; assay type: cell-based; details: for inhibition at 5 µM: read-out: Adhesion % inhibition @5 μM
T1 construct: αvβ3-expressing U87-MG glioblastoma and SK-Mel-2 melanoma cells; host or cells: SK-Mel-2 human melanoma cells
Description: (§1) Cancer cell lines were obtained from ATCC (SK-Mel-2) or ECACC (U87-MG) and cultured in RPMI-1640 culture medium containing 10% foetal bovine serum (FBS), sodium pyruvate (1 mM) and L-glutamine (2 mM). All are human in origin. The αvβ3 adhesion assay was performed as previously described.[22,43]

[1] = test system: U87-MG glioblastoma cells; experiment: U87-MG 3-D spheroid invasion assay; assay type: cell-based; details: Homo sapiens, U-87 MG, mean ± SD
Description: Selected compounds were further investigated for effects on αvβ3-mediated cell invasion to model a key step in tumour progression and metastasis. U87-MG glioblastoma cells; a well-known αvβ3-expressing cell line model,[35,36] were used in a 3-D spheroid invasion model.[37]
as §1
Spheroids were formed from U87-MG cells (1000 cells per 30 μl hanging drop) according to the method of Nowicki and then embedded in collagen as follows.[37] Collagen I (1400 μL of 3 mg mL^−1) was added to a 1 mL Eppendorf tube on ice, supplemented with 0.2 mL of complete RPMI, and adjusted to pH 7.4 with 1 N NaOH. The collagen mixture was pipetted into each chamber of an 8-chamber cover glass and incubated at 37 °C for 45 minutes. Spheroids from hanging drops were transferred to each chamber of the cover glass, the medium allowed to evaporate, and then a 200 μL layer of collagen gel matrix was added to each chamber and incubated at 37 °C for 45 minutes. 200 μL of RPMI containing test compounds was added to each chamber and incubated at 37 °C, 5% CO2 for 7 days. The spheroids were observed frequently using inverted light microscopy at 10× objective lens, and images were captured and analysed using ImageJ.

[2] = Metabolic stability in mouse liver homogenates; assay type: in vitro ADME
Description: The methyl esters in 1 and 54 were cleaved to the corresponding free acids with half-lives of 5.4 minutes and 3.6 minutes respectively (ESI ^†). This was expected as small esters are frequently used to mask carboxylic acids with rapid ester hydrolysis releasing the active carboxylic acid in biological systems.
Compound metabolism in liver (ex vivo) was studied using (1 : 3) tissue homogenates of mouse liver. Mouse livers, supplied by the Institute of Cancer Therapeutics (ICT), under Home Office license guidelines (see below) were homogenized in phosphate-buffered saline. Liver homogenates were spiked with compound of interest (10 μM final concentration) and incubated at 37 °C. Reaction aliquots were removed over a 120 minute period, proteins precipitated using acetonitrile (1 : 3), and compound and metabolites analyzed by liquid chromatography-mass spectrometry (LC–MS) at the appropriate SIR (single ion recording) channel.
Detection was performed on a Waters Alliance system using a photodiode array detector, and a Waters Micromass ZQ quadrupole electrospray mass spectrometer connected in series. Compound and metabolites were separated on a RPB reversed-phase high-performance liquid chromatography column (HiChrom) using a mobile phase of acetonitrile/water/0.1% formic acid, with a gradient from 20% to 70% acetonitrile over 30 minutes at 1.1 mL min^−1.
Any metabolic intermediates were detected as singularly charged ions and identified by mass spectrometry.

in vitro [3] = assay type: cell-based; details: human
Source text: (§2) Compounds were screened for non-specific cytotoxicity using the MTT assay before use in anti-αvβ3 functional assays. Unlike normal cells, cancer cell survival is often independent of αvβ3, and checking for cytotoxicity ensures inhibition of adhesion and invasion are truly from αvβ3 inhibition rather than cell death. […] In general, aminopyridines 53 and 54 were more cytotoxic than most THN-containing mimetics.
as §1
(§3) Table S1 Cytotoxicity of compounds on the cell lines used in the functional assays (measured by MTT assay). Cells (2000 cells/well for Sk-Mel-2; 1000 cells/well for U87MG) were incubated for 96 hours at 37 °C in a total volume of 200 µL/well (180 μL medium + 20 μL test compound solution). After 96 hours, the medium was replaced by fresh medium containing 0.5 mg/ml (end conc.) MTT per well, incubated for 4 h then the plate processed and read as described in Sutherland et al. 1 […]
(§4) 1. M. Sutherland, A. Gordon, F. O. Al-Shammari, A. Throup, A. Cilia La Corte, H. Philippou, S. D.
(§5) Shnyder, L. H. Patterson and H. M. Sheldrake, Cancers, 2023, 15, 4023.
(§6) (also on this page, place not known: al.1 Supplementary Information (SI) for RSC Medicinal Chemistry. This journal is © The Royal Society of Chemistry 2024)
(§7) (1 picture or pasted object on this page, not shown here)

in vitro [4] = assay type: cell-based; details: human; remark: listed apart in the source
Source text: as §2, §1, §3, §4, §5, §6, §7

[5] = SK-Mel-2 adhesion to fibronectin, mean ± SD
[6] = read-out: Adhesion % inhibition @50 μM, SK-Mel-2 adhesion to fibronectin, mean ± SD
[7] = SK-MEL-2, read-out: Adhesion % inhibition @50 μM (initial trial experiment), initial trial experiment, not tested further at this concentration

T1 sequence (P06756 31-889 limits assumed): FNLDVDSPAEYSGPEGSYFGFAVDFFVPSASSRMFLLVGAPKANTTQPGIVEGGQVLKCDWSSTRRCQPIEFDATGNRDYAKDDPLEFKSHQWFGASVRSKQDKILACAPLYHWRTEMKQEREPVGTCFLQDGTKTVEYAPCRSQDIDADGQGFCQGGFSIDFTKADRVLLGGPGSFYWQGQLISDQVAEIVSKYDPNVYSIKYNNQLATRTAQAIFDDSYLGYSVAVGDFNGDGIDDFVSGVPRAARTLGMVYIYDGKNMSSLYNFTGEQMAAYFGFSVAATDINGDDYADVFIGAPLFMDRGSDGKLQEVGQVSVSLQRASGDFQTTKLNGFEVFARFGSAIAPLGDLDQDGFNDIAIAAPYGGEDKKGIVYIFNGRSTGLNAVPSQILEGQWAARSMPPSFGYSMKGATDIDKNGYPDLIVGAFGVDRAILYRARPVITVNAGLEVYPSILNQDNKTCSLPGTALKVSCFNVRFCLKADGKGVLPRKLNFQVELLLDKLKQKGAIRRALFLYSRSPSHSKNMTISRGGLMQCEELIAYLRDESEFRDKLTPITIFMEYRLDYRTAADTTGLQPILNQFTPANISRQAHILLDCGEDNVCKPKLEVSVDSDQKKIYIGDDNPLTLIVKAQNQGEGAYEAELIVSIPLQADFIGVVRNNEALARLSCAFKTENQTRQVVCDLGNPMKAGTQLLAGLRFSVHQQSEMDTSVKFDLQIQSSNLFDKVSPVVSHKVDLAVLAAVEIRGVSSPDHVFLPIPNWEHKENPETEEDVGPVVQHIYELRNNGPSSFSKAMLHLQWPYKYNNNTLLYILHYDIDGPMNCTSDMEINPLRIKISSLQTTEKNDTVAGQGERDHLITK
T1 sequence (P06756 891-1048 partner limits assumed): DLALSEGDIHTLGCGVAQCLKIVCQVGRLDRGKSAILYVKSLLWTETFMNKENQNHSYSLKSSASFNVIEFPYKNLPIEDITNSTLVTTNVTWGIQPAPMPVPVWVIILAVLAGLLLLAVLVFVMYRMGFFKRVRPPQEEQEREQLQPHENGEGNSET
T1 sequence (P05106 27-788): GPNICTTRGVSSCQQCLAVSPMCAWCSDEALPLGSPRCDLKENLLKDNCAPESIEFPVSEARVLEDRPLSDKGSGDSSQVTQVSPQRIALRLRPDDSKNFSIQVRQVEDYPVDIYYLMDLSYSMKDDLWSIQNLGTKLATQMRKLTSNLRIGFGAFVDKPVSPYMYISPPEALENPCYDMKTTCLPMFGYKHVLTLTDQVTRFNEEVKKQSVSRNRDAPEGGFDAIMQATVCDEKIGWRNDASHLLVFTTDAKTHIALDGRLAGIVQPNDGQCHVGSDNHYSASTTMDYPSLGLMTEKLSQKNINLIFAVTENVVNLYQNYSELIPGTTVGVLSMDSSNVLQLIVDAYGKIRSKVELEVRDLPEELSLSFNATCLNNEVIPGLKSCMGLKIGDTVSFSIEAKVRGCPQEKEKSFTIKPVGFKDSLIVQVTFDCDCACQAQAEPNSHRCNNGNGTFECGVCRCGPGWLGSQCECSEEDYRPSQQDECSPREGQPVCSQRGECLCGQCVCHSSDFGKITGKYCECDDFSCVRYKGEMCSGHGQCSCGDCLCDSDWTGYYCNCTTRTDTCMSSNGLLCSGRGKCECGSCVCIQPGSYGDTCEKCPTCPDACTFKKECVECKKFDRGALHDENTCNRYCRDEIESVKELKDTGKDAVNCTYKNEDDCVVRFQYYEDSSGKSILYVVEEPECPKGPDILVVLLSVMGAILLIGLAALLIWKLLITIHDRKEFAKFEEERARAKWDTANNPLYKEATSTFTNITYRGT

SMILES | IC50 (αvβ3; [5]) [µM] | inhibition at 5 µM (αvβ3; [5]) [%] | inhibition at 10 µM [1] [%] | inhibition at 50 µM (αvβ3; [7]) [%] | IC50 at 96 h (in vitro [4]) [µM] | other results
COC(=O)[C@H](CNC(=O)[C@H]1C[C@@H](CCc2ccc3c(n2)NCCC3)C1)NS(=O)(=O)c1c(C)cc(C)cc1C [Compound 1] | 0.34 ± 0.33 | 98.4 ± 1.9 | 60.2 ± 0.2 | – | – | half-life at 10 μM ([2]; liver homogenate (1:3), 10 μM, 37 °C, read-out: half-life of methyl ester cleavage to free acid): 5.4 min
COC(=O)[C@H](CCNC(=O)[C@H]1C[C@@H](Cc2ccc3cccnc3n2)C1)NS(=O)(=O)c1ccccc1 [Compound 17] | – | – | 23.3 ± 6.2 | – | – | inhibition at 50 µM (αvβ3; [6]): 13 ± 25%
COC(=O)[C@H](CCNC(=O)[C@H]1C[C@@H](Cc2ccc3cccnc3n2)C1)NS(=O)(=O)c1c(C)cc(C)cc1C [Compound 18] | – | – | 17.4 ± 3.7 | – | – | IC50 at 96 h (in vitro [3]): 59.2 ± 16.9 µM
COC(=O)[C@H](CCNC(=O)[C@H]1C[C@@H](CCc2ccc3cccnc3n2)C1)NS(=O)(=O)c1ccccc1 [Compound 19] | – | 54 ± 15 | – | > 75 | > 50 | –
COC(=O)[C@H](CCNC(=O)[C@H]1C[C@@H](CCc2ccc3cccnc3n2)C1)NS(=O)(=O)c1c(C)cc(C)cc1C [Compound 20] | 11.5 ± 5.3 | 43 ± 6 | 55.7 ± 1.2 | > 75 | – | –
COC(=O)[C@H](CCNC(=O)[C@H]1C[C@@H](Cc2ccc3c(n2)NCCC3)C1)NS(=O)(=O)c1ccccc1 [Compound 21] | 29.4 ± 2.1 | 4 ± 9 | 49.5 ± 8.8 | > 75 | – | –
COC(=O)[C@H](CCNC(=O)[C@H]1C[C@@H](Cc2ccc3c(n2)NCCC3)C1)NS(=O)(=O)c1c(C)cc(C)cc1C [Compound 22] | – | 83 ± 19 | 22.9 ± 5.7 | > 75 | > 50 | IC50 at 96 h (in vitro [3]): 46.4 ± 3.5 µM
COC(=O)[C@H](CCNC(=O)[C@H]1C[C@@H](CCc2ccc3c(n2)NCCC3)C1)NS(=O)(=O)c1ccccc1 [Compound 23] | – | 57 ± 13 | – | > 75 | > 50 | –
COC(=O)[C@H](CCNC(=O)[C@H]1C[C@@H](CCc2ccc3c(n2)NCCC3)C1)NS(=O)(=O)c1c(C)cc(C)cc1C [Compound 24] | – | 74 ± 10 | 35 ± 9 | > 75 | – | –
COC(=O)[C@H](CC(=O)N[C@H]1C[C@@H](CCc2ccc3cccnc3n2)C1)NS(=O)(=O)c1ccccc1 [Compound 28] | – | – | 28.5 ± 4.4 | – | – | inhibition at 50 µM (αvβ3; [6]): 42.4 ± 16.3%
COC(=O)[C@H](CC(=O)N[C@H]1C[C@@H](CCc2ccc3cccnc3n2)C1)NS(=O)(=O)c1c(C)cc(C)cc1C [Compound 29] | – | – | 70.4 ± 1.4 | – | – | inhibition at 50 µM (αvβ3; [6]): 56.6 ± 15.3%
O=C1C[C@H](NS(=O)(=O)c2ccccc2)C(=O)N1[C@H]1C[C@@H](CCc2ccc3cccnc3n2)C1 [Compound 30] | – | 39.9 ± 23.8 | 22.6 ± 4 | – | – | –
Cc1cc(C)c(S(=O)(=O)N[C@H]2CC(=O)N([C@H]3C[C@@H](CCc4ccc5cccnc5n4)C3)C2=O)c(C)c1 [Compound 31] | 49.5 ± 29.8 | 13.8 ± 9.7 | – | – | > 100 | inhibition at 50 µM (αvβ3; [6]): 60.9 ± 23.8%
COC(=O)[C@H](CC(=O)N[C@H]1C[C@@H](CCc2ccc3c(n2)NCCC3)C1)NS(=O)(=O)c1ccccc1 [Compound 32] | – | 45.4 ± 13.7 | 41.6 ± 4.7 | – | – | –
COC(=O)[C@H](CC(=O)N[C@H]1C[C@@H](CCc2ccc3c(n2)NCCC3)C1)NS(=O)(=O)c1c(C)cc(C)cc1C [Compound 33] | 1.2 ± 0.9 | 89.5 ± 8.7 | 33.7 ± 7.4 | – | – | –
O=C1C[C@H](NS(=O)(=O)c2ccccc2)C(=O)N1[C@H]1C[C@@H](CCc2ccc3c(n2)NCCC3)C1 [Compound 34] | 3.28 ± 0.01 | 60.2 ± 14.8 | 69.9 ± 1.8 | – | – | inhibition at 50 µM (αvβ3; [6]): 73.9 ± 24.6%
Cc1cc(C)c(S(=O)(=O)N[C@H]2CC(=O)N([C@H]3C[C@@H](CCc4ccc5c(n4)NCCC5)C3)C2=O)c(C)c1 [Compound 35] | 1.8 ± 1 | – | – | – | 15.2 ± 5.5 | inhibition at 0.5 µM (αvβ3; 0.5 μM, SK-Mel-2 adhesion to fibronectin): 45.6%
CC(C)(C)OC(=O)C[C@H](NS(=O)(=O)c1ccccc1)C(=O)N[C@H]1C[C@@H](CCc2ccc3cccnc3n2)C1 [Compound 37] | 13.6 ± 8.3 | 50 ± 17 | – | > 75 | > 50 | –
O=C(O)C[C@H](NS(=O)(=O)c1ccccc1)C(=O)N[C@H]1C[C@@H](CCc2ccc3cccnc3n2)C1 [Compound 38] | – | – | – | – | > 50 | inhibition at 50 µM (αvβ3; [6]): 43 ± 31%
CC(C)(C)OC(=O)C[C@H](NS(=O)(=O)c1ccccc1)C(=O)N[C@H]1C[C@@H](CCc2ccc3c(n2)NCCC3)C1 [Compound 39] | – | 71 ± 16 | – | > 75 | 35.2 ± 6.5 | –
O=C(O)C[C@H](NS(=O)(=O)c1ccccc1)C(=O)N[C@H]1C[C@@H](CCc2ccc3c(n2)NCCC3)C1 [Compound 40] | – | 67 ± 16 | – | > 75 | > 50 | –
CNc1cccc(CC[C@H]2C[C@@H](C(=O)NC[C@H](NS(=O)(=O)c3ccccc3)C(=O)OC)C2)n1 [Compound 53] | 1.8 ± 0.4 | 85 ± 1.4 | 62.9 ± 1.5 | – | – | –
CNc1cccc(CC[C@H]2C[C@@H](C(=O)NC[C@H](NS(=O)(=O)c3c(C)cc(C)cc3C)C(=O)O)C2)n1 [Compound 55] | – | – | – | – | – | stability of metabolite in liver ([2]; mouse liver homogenate): appears to be stable
CC(C)[C@@H]1NC(=O)[C@@H](Cc2ccccc2)NC(=O)[C@H](CC(=O)O)NC(=O)CNC(=O)[C@H](CCCN=C(N)N)NC1=O [cRGDfV, reference compound] | – | – | – | – | – | IC50 at 96 h (in vitro [3]): 69.2 ± 25.5 µM
